doi:10.1101/2020.01.14.906396v1 (biorxiv, 2020)

Biological target: T1, K2P2.1 (TREK-1, KCNK2) (Homo sapiens, UniProt O95069)
T1 sequence (O95069 1-426): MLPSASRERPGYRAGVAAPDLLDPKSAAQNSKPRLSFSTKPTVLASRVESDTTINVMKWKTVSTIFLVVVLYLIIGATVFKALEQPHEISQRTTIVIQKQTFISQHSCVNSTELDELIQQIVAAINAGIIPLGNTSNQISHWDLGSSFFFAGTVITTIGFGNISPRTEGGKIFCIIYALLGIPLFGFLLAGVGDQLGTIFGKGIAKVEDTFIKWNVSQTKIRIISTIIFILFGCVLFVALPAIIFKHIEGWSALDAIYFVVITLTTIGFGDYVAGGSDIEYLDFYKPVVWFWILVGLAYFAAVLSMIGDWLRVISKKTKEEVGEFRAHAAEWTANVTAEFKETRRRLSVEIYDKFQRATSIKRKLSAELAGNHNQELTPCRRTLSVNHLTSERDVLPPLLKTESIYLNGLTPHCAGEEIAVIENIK
Experiment: two-electrode voltage clamp, Xenopus oocytes
Assay type: cell-based

EC50 [µM] | SMILES
200 ± 60 | Cc1ccc(C(C)C)cc1O [carvacrol, 2-methyl-5-(propan-2-yl) phenol]
3800 ± 1000 | CC(C)[C@@H]1CC[C@@H](C)C[C@H]1O [menthol]
430 ± 240 | Cc1ccc(C(C)C)c(O)c1 [thymol]
